The experiment addresses T1, human PKCθ full length enzyme (Homo sapiens, UniProt Q04759).
T1 construct: human PKCθ full length enzyme (Panvera Cat# P2996); purchased Panvera P2996
Briefly: PKCθ IMAP assay (fluorescence polarization). In kind it is biochemical. (Polarisation of emitted light reports the rotation of a fluorescent probe.)

The mark [1] stands for this setting: human PKCθ full length enzyme, IMAP, average value, read-out: IC50 PKCθ IMAP.

Each structure is given as a SMILES string. Where two headings read alike, the source gives them in different places.

For 38 compounds, IC50 results are on record in patent US7781591B2, “Substituted 3-cyanopyridines as protein kinase inhibitors” (Wyeth LLC, priority 2006, dated 2010).

One may read the IC50 as the concentration needed to halve the response being measured.

T1 sequence (Q04759 whole entry): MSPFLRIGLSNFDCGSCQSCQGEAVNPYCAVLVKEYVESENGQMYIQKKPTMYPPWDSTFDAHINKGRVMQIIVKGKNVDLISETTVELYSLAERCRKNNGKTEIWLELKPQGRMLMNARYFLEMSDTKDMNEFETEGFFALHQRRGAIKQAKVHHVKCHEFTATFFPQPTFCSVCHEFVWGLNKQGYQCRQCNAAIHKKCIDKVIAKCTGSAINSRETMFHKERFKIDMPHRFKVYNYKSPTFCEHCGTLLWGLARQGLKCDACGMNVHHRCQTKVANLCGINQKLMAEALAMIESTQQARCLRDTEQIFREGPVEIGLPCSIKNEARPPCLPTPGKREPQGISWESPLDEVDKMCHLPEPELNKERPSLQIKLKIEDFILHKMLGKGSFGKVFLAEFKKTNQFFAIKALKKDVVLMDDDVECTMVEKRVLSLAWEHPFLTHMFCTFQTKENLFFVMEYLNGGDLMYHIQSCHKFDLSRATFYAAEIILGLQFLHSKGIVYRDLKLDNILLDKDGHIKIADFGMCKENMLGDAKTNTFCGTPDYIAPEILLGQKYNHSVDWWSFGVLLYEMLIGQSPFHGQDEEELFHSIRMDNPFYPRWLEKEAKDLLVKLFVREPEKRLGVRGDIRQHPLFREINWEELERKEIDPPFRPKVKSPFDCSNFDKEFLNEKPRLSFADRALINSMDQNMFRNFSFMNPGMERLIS

Take `Cc1c(Nc2c(C#N)cncc2-c2cc3cc(CN4CCN(C)CC4)ccc3o2)cc(Cl)c2[nH]ccc12` [Compound 529, 4-[(7-chloro-4-methyl-1H-indol-5-yl)amino]-5-{5-[(4-methylpiperazin-1-yl)methyl]-1-benzofuran-2-yl}nicotinonitrile]: under setting [1], the IC50 amounted to 2 nM.
For `COc1ccc(-c2cncc(C#N)c2Nc2ccc(C)c3cc[nH]c23)cc1OC` [Compound 530, 5-(3,4-dimethoxyphenyl)-4-[(4-methyl-1H-indol-7-yl)amino]nicotinonitrile], the IC50 under setting [1] was 179 nM.
Turning to `Cc1c(Nc2c(C#N)cncc2-c2cc3ccccc3o2)cc(Cl)c2[nH]ccc12` [Compound 531, 5-(1-benzofuran-2-yl)-4-[(7-chloro-4-methyl-1H-indol-5-yl)amino]nicotinonitrile], the half-inhibitory concentration (IC50) under setting [1] is 20 nM.
Same read-out and setting: the figure for `Cc1c(Nc2c(C#N)cncc2-c2ccc(OCCCl)cc2)cc(Cl)c2[nH]ccc12` [Compound 533, 5-[4-(2-chloroethoxy)phenyl]-4-[(7-chloro-4-methyl-1H-indol-5-yl)amino]nicotinonitrile] is 51 nM; for `Cc1c(Nc2c(C#N)cncc2-c2ccc(OCCN(C)C)cc2)cc(Cl)c2[nH]ccc12` [Compound 534, 4-[(7-chloro-4-methyl-1H-indol-5-yl)amino]-5-{4-[2-(dimethylamino)ethoxy]phenyl}nicotinonitrile] it is 17 nM.
For the compound `Cc1c(Nc2c(C#N)cncc2-c2ccc(OCCN3CCN(C)CC3)cc2)cc(Cl)c2[nH]ccc12` [Compound 535, 4-[(7-chloro-4-methyl-1H-indol-5-yl)amino]-5-{4-[2-(4-methylpiperazin-1-yl)ethoxy]phenyl}nicotinonitrile], the IC50 under setting [1] came out at 38 nM.
Still for that read-out and setting: for `Cc1c(Nc2c(C#N)cncc2-c2cc3cc(CN4CCN(C(=O)OC(C)(C)C)CC4)ccc3o2)ccc2[nH]ccc12` [Compound 536, tert-butyl 4-[(2-{5-cyano-4-[(4-methyl-1H-indol-5-yl)amino]pyridin-3-yl}-1-benzofuran-5-yl)methyl]piperazine-1-carboxylate] the value was 58 nM; for `Cc1c(Nc2c(C#N)cncc2-c2cnc(C=O)n2C)ccc2[nH]ccc12` [Compound 537, 5-(2-formyl-1-methyl-1H-imidazol-5-yl)-4-[(4-methyl-1H-indol-5-yl)amino]nicotinonitrile], 23 nM.
Still for that read-out and setting: the figure for `Cc1c(Nc2c(C#N)cncc2-c2cc3cc(CN4CCN(S(C)(=O)=O)CC4)ccc3o2)ccc2[nH]ccc12` [Compound 538, 4-[(4-methyl-1H-indol-5-yl)amino]-5-(5-{[4-(methylsulfonyl)piperazin-1-yl]methyl}-1-benzofuran-2-yl)nicotinonitrile] is 15 nM; for `Cc1c(Nc2c(C#N)cncc2-c2cnc(CN3CCN(C)CC3)n2C)ccc2[nH]ccc12` [Compound 539, 4-[(4-methyl-1H-indol-5-yl)amino]-5-{1-methyl-2-[(4-methylpiperazin-1-yl)methyl]-1H-imidazol-5-yl}nicotinonitrile] it is 36 nM; for `Cc1c(Nc2c(C#N)cncc2-c2cc3cc(CN4CCNCC4)ccc3o2)ccc2[nH]ccc12` [Compound 540, 4-[(4-methyl-1H-indol-5-yl)amino]-5-[5-(piperazin-1-ylmethyl)-1-benzofuran-2-yl]nicotinonitrile] it is 5 nM.
Still for that read-out and setting: the figure for `Cc1c(Nc2c(C#N)cncc2-c2nccs2)ccc2[nH]ccc12` [Compound 541, 4-[(4-methyl-1H-indol-5-yl)amino]-5-(1,3-thiazol-2-yl)nicotinonitrile] is 7 nM; for `Cc1c(Nc2c(C#N)cncc2-c2nccn2C)ccc2[nH]ccc12` [Compound 542, 5-(1-methyl-1H-imidazol-2-yl)-4-[(4-methyl-1H-indol-5-yl)amino]nicotinonitrile] it is 42 nM.
On to `Cc1c(Nc2c(C#N)cncc2-c2cscn2)ccc2[nH]ccc12` [Compound 543, 4-[(4-methyl-1H-indol-5-yl)amino]-5-(1,3-thiazol-4-yl)nicotinonitrile], for which the IC50 under setting [1] was determined as 8 nM.
Consider `COc1ccc(-c2cncc(C#N)c2Nc2cccc3cc[nH]c23)cc1OC` [Compound 544, 5-(3,4-dimethoxyphenyl)-4-(1H-indol-7-ylamino)nicotinonitrile], for which the half-inhibitory concentration (IC50) under setting [1] was found to be 737 nM.
Still for that read-out and setting: for `COc1ccc(-c2cncc(C#N)c2Nc2ccc3[nH]ccc3c2F)cc1OC` [Compound 546, 5-(3,4-dimethoxyphenyl)-4-[(4-fluoro-1H-indol-5-yl)amino]nicotinonitrile] the value was 5 nM; for `Cc1c(Nc2c(C#N)cncc2-c2cc3cc(CN4CCNCC4)ccc3o2)cc(Cl)c2[nH]ccc12` [Compound 547, 4-[(7-chloro-4-methyl-1H-indol-5-yl)amino]-5-[5-(piperazin-1-ylmethyl)-1-benzofuran-2-yl]nicotinonitrile], 4 nM; for `Cc1c(Nc2c(C#N)cncc2-c2cc3cc(CN4CCN(C(=O)OC(C)(C)C)CC4)ccc3o2)cc(Cl)c2[nH]ccc12` [Compound 548, tert-butyl 4-[(2-{4-[(7-chloro-4-methyl-1H-indol-5-yl)amino]-5-cyanopyridin-3-yl}-1-benzofuran-5-yl)methyl]piperazine-1-carboxylate], 406 nM.
With `COc1ccc(-c2cncc(C#N)c2Nc2ccc3[nH]c(C)cc3c2C)cc1OC` [Compound 549, 5-(3,4-dimethoxyphenyl)-4-[(2,4-dimethyl-1H-indol-5-yl)amino]nicotinonitrile], under setting [1], the IC50 was 10 nM.
Same read-out and setting: the figure for `Cc1c(Nc2c(C#N)cncc2-c2ccccc2CN(C)C)ccc2[nH]ccc12` [Compound 550, 5-{2-[(dimethylamino)methyl]phenyl}-4-[(4-methyl-1H-indol-5-yl)amino]nicotinonitrile] is 205 nM; for `COc1ccc(C=O)cc1-c1cncc(C#N)c1Nc1ccc2[nH]ccc2c1C` [Compound 551, 5-(5-formyl-2-methoxyphenyl)-4-[(4-methyl-1H-indol-5-yl)amino]nicotinonitrile] it is 28 nM.
Turning to `COc1ccc(CN2CCN(C)CC2)cc1-c1cncc(C#N)c1Nc1ccc2[nH]ccc2c1C` [Compound 552, 5-{2-methoxy-5-[(4-methylpiperazin-1-yl)methyl]phenyl}-4-[(4-methyl-1H-indol-5-yl)amino]nicotinonitrile], the IC50 under setting [1] is 84 nM.
The same measure, in the same setting: for `CCN1CCN(Cc2ccc3oc(-c4cncc(C#N)c4Nc4ccc5[nH]ccc5c4C)cc3c2)CC1` [Compound 553, 5-{5-[(4-ethylpiperazin-1-yl)methyl]-1-benzofuran-2-yl}-4-[(4-methyl-1H-indol-5-yl)amino]nicotinonitrile] the value was 0.48 nM.
In the case of `Cc1c(Nc2c(C#N)cncc2-c2cc3cc(CN4CC[N+](C)([O-])CC4)ccc3o2)ccc2[nH]ccc12` [Compound 554, 4-[(4-methyl-1H-indol-5-yl)amino]-5-{5-[(4-methyl-4-oxidopiperazin-1-yl)methyl]-1-benzofuran-2-yl}nicotinonitrile], the IC50 worked out at 6 nM.
On to `COc1ccc(-c2cncc(C#N)c2Nc2ccc3c(ccn3C)c2C)cc1OC` [Compound 555, 5-(3,4-dimethoxyphenyl)-4-[(1,4-dimethyl-1H-indol-5-yl)amino]nicotinonitrile], for which the IC50 under setting [1] stood at 226 nM.
Turning to `Cc1c(Nc2c(C#N)cncc2-c2cccc(C(=O)O)c2)ccc2[nH]ccc12` [Compound 556, 3-{5-cyano-4-[(4-methyl-1H-indol-5-yl)amino]pyridin-3-yl}benzoic acid], under setting [1], the concentration for half-maximal inhibition (IC50) worked out at 110 nM.
As for `COc1ccccc1-c1cncc(C#N)c1Nc1ccc2[nH]ccc2c1C` [Compound 557, 5-(2-methoxyphenyl)-4-[(4-methyl-1H-indol-5-yl)amino]nicotinonitrile], the IC50 under setting [1] amounted to 82 nM.
In the case of `COc1cccc(-c2cncc(C#N)c2Nc2ccc3[nH]ccc3c2C)c1` [Compound 558, 5-(3-methoxyphenyl)-4-[(4-methyl-1H-indol-5-yl)amino]nicotinonitrile], the IC50 under setting [1] was determined as 36 nM.
Still for that read-out and setting: for `COc1ccc(-c2cncc(C#N)c2Nc2ccc3[nH]ccc3c2C)cc1` [Compound 559, 5-(4-methoxyphenyl)-4-[(4-methyl-1H-indol-5-yl)amino]nicotinonitrile] the value was 6 nM; for `Cc1c(Nc2c(C#N)cncc2-c2ccccc2)ccc2[nH]ccc12` [Compound 560, 4-[(4-methyl-1H-indol-5-yl)amino]-5-phenylnicotinonitrile], 27 nM.
Turning to `Cc1c(Nc2c(C#N)cncc2-c2cccs2)ccc2[nH]ccc12` [Compound 561, 4-[(4-methyl-1H-indol-5-yl)amino]-5-(2-thienyl)nicotinonitrile], the 50% inhibitory concentration (IC50) under setting [1] amounted to 21 nM.
Turning to `Cc1c(Nc2c(C#N)cncc2-c2ccsc2)ccc2[nH]ccc12` [Compound 562, 4-[(4-methyl-1H-indol-5-yl)amino]-5-(3-thienyl)nicotinonitrile], the IC50 under setting [1] is 12 nM.
Same read-out and setting: for `Cc1c(Nc2c(C#N)cncc2-c2ccoc2)ccc2[nH]ccc12` [Compound 563, 5-(3-furyl)-4-[(4-methyl-1H-indol-5-yl)amino]nicotinonitrile] the value was 22 nM.
The same measure, in the same setting: for `Cc1c(Nc2c(C#N)cncc2-c2cncn2C)ccc2[nH]ccc12` [Compound 564, 5-(1-methyl-1H-imidazol-5-yl)-4-[(4-methyl-1H-indol-5-yl)amino]nicotinonitrile] the value was 98 nM.
`Cc1c(Nc2c(C#N)cncc2-c2ccccn2)ccc2[nH]ccc12` [Compound 565, 4′-[(4-methyl-1H-indol-5-yl)amino]-2,3′-bipyridine-5′-carbonitrile]: the IC50 under setting [1] is 22 nM.
Consider `Cc1c(Nc2c(C#N)cncc2-c2ccc(NC(=O)NC3CC3)cc2)ccc2[nH]ccc12` [Compound 566, 1-(4-{5-cyano-4-[(4-methyl-1H-indol-5-yl)amino]pyridin-3-yl}phenyl)-3-cyclopropylurea], for which the IC50 under setting [1] was found to be 23 nM.
Still for that read-out and setting: for `CNC(=O)Nc1ccc(-c2cncc(C#N)c2Nc2ccc3[nH]ccc3c2C)cc1` [Compound 567, 1-(4-{5-cyano-4-[(4-methyl-1H-indol-5-yl)amino]pyridin-3-yl}phenyl)-3-methylurea] the value was 21 nM; for `Cc1c(Nc2c(C#N)cncc2-c2ccc(NC(=O)N(C)C)cc2)ccc2[nH]ccc12` [Compound 568, 3-(4-{5-cyano-4-[(4-methyl-1H-indol-5-yl)amino]pyridin-3-yl}phenyl)-1,1-dimethylurea], 56 nM.
